Data on 21 compounds can be found in PubChem BioAssay (NCI).

Each structure is given as a SMILES string. “And” between values parts separate entries of the source, which are not always exact repeats. Equal values may be shown once.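 Test compounds were applied to cells in 96-well plates for 48 hours at 5 doses. GI50 = concentration required for 50% inhibition of growth. TGI: concentration producing complete growth inhibition.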 A value given as a limit tells only on which side of the number the result lay.

Among the test systems are SK-MEL-5 melanoma; SN12C renal; OVCAR-3 ovarian; LOX IMVI melanoma; RXF 393 renal; SW-620 colon; A498 renal; OVCAR-8 ovarian; A549 NSCLC; SR leukemia.
Common to all, as to test: NCI anticancer screen, dose series, 48 h

For the compound `COc1cc(-c2nc3ccc(C)cc3[nH]2)ccc1OCC(=O)N=Nc1c(O)[nH]c2ccccc12`, the GI50 with SK-MEL-5 melanoma was 1.82 µM; in the test on SN12C renal it was 1.68 µM; in the test on OVCAR-3 ovarian, 1.71 µM; in the test on LOX IMVI melanoma, 0.339 µM; in the test on RXF 393 renal, 1.65 µM; with SW-620 colon, 0.769 µM. In the test with A498 renal, the GI50 was 2.36 µM. Moreover, the TGI with SK-MEL-5 melanoma amounted to 3.52 µM; in the test with SN12C renal it was 3.19 µM; with OVCAR-3 ovarian, 3.21 µM; with LOX IMVI melanoma it was 1.29 µM; in the test with RXF 393 renal it was 3.17 µM; with SW-620 colon, 2.37 µM. Moreover, in the test with A498 renal, the TGI was determined as 7.46 µM.

Regarding `COC(=O)c1c(-c2ccccc2)cc2c3cc(-c4ccccc4)c(C(=O)OC)n3c3ccccc3n12`, the TGI with OVCAR-8 ovarian, with SK-MEL-5 melanoma, with SN12C renal, with OVCAR-3 ovarian, in the test on A549 NSCLC and in the test on LOX IMVI melanoma was above 100 µM throughout. The values for the TGI in the test with RXF 393 renal, with SW-620 colon and in the test on A498 renal were above 94.7 µM, above 100 µM and above 100 µM, respectively.

Take `CC(=O)NC(CCCCNC(=O)OCc1ccccc1)C(=O)NCc1ccccc1` (centres undefined): the TGI in the test on OVCAR-8 ovarian, in the test on SK-MEL-5 melanoma, with SN12C renal, with OVCAR-3 ovarian, with A549 NSCLC and in the test on LOX IMVI melanoma was above 100 µM in each case. For the same compound, the TGI in the test with RXF 393 renal, with SW-620 colon and in the test with A498 renal was above 100 µM each time.

Consider `CCN(CC)CCNc1c(OC)cc(C)c2sc3ccccc3c(=O)c12`, for which the TGI in the test with OVCAR-8 ovarian stood at 26.1 µM; in the test with SR leukemia, 5.33 µM; in the test with SK-MEL-5 melanoma it was 3.4 µM; in the test on SN12C renal it was 9.92 µM; in the test on OVCAR-3 ovarian, 26.2 µM; in the test on A549 NSCLC, 18 µM. The TGI in the test on RXF 393 renal is 34 µM; in the test on SW-620 colon, 17.9 µM.

For the compound `O=c1cc(-c2ccccc2)[nH]c2cccc(S)c12`, the TGI in the test with OVCAR-8 ovarian was 2.37 µM; in the test with SR leukemia it was above 100 µM; in the test with SK-MEL-5 melanoma, above 100 µM; in the test with SN12C renal, above 100 µM; in the test on OVCAR-3 ovarian it was above 100 µM; in the test on A549 NSCLC, above 100 µM. Moreover, the TGI with RXF 393 renal is 0.469 µM; in the test on SW-620 colon it was above 100 µM.

On to `C=CCn1c(C)nc2cc(Nc3nc(Nc4ccc5nc(C)n(CC=C)c5c4)c4ccccc4n3)ccc21`, for which the GI50 in the test on OVCAR-8 ovarian was 0.229 µM; in the test on SK-MEL-5 melanoma, 1.36 µM; in the test with OVCAR-3 ovarian, 0.183 µM; with LOX IMVI melanoma, 0.208 µM; in the test with RXF 393 renal, 0.354 µM; in the test on A498 renal, 1.46 µM. Also, the TGI in the test with OVCAR-8 ovarian turned out to be 0.535 µM; with SK-MEL-5 melanoma, 2.64 µM; in the test on OVCAR-3 ovarian, 0.342 µM; with LOX IMVI melanoma, 0.466 µM; in the test on RXF 393 renal it was 1.37 µM; with A498 renal it was 2.87 µM.

As to `CC(=O)NC1=N/C(=C/c2cc([N+](=O)[O-])ccc2O)CN1C`, the TGI with OVCAR-8 ovarian, with SK-MEL-5 melanoma, with SN12C renal, in the test on OVCAR-3 ovarian, with A549 NSCLC and in the test with LOX IMVI melanoma was above 100 µM throughout. This compound gave a TGI in the test with SW-620 colon above 100 µM.

For `CCOc1ccccc1NC(=O)/C=C1\NC(=O)CS1`, the TGI in the test with OVCAR-8 ovarian, in the test with SK-MEL-5 melanoma, in the test on SN12C renal, in the test on OVCAR-3 ovarian, in the test with A549 NSCLC and in the test with LOX IMVI melanoma was above 100 µM throughout. Moreover, the TGI in the test on RXF 393 renal, in the test with SW-620 colon and in the test on A498 renal was above 100 µM throughout.

For the compound `O=C1C(Br)=C[C@H]2C3C=CC(Br)(C3=O)[C@@H]12` (some centres undefined), the TGI with OVCAR-8 ovarian was determined as 26 µM; in the test on SK-MEL-5 melanoma, 27.2 µM; in the test on SN12C renal, 25.9 µM; in the test on OVCAR-3 ovarian it was 27.1 µM; in the test with A549 NSCLC, 76.9 µM; in the test with RXF 393 renal, 27.3 µM. In addition, the figures for the TGI with SW-620 colon and with A498 renal were 21.1 µM and 37.9 µM, respectively.

For the compound `N#CCCc1nc2ccc(Br)cc2c(=O)n1CCO`, the TGI in the test on OVCAR-8 ovarian, in the test with SK-MEL-5 melanoma, in the test with SN12C renal, in the test on OVCAR-3 ovarian, in the test on A549 NSCLC and in the test with LOX IMVI melanoma was above 100 µM throughout. The TGI in the test on RXF 393 renal and in the test on SW-620 colon was above 100 µM in each case.

Take `COc1ccc(/C=C/c2cc(OC)c(OC)c(OC)c2)cc1NC(=O)/C=C/c1ccc(F)cc1`: the GI50 is 3.37 µM in the test with OVCAR-8 ovarian; 2.72 µM with SK-MEL-5 melanoma; 5.56 µM in the test on SN12C renal; 2.43 µM with OVCAR-3 ovarian; 3.41 µM with A549 NSCLC; 6.15 µM in the test on LOX IMVI melanoma. Further, the GI50 is 1.41 µM in the test on RXF 393 renal, 2.85 µM in the test with SW-620 colon and 0.0352 µM with A498 renal. Moreover, the TGI in the test on OVCAR-8 ovarian was above 100 µM; in the test on SK-MEL-5 melanoma it was above 100 µM; with SN12C renal it was above 100 µM; with OVCAR-3 ovarian, 6.23 µM; in the test on A549 NSCLC, above 100 µM; with LOX IMVI melanoma it was above 100 µM. In addition, the figures for the TGI with RXF 393 renal and with SW-620 colon were 4.88 µM and above 100 µM, respectively.

In the case of `CCN(CC)c1ccc(N=Nc2ccc(-c3nc4cccnc4o3)cc2)cc1`, the TGI with OVCAR-8 ovarian, in the test with SK-MEL-5 melanoma, in the test with SN12C renal, with OVCAR-3 ovarian, with A549 NSCLC and in the test on LOX IMVI melanoma was above 100 µM throughout. Besides, the TGI with RXF 393 renal, with SW-620 colon and in the test on A498 renal was above 100 µM each time.

`COc1cc(C2c3cc4c(cc3[C@@H](Nc3ccc(C(=O)O)cc3)C3COC(=O)[C@H]23)OCO4)cc(OC)c1O` (some centres undefined): the TGI in the test on OVCAR-8 ovarian was 54 µM and > 17.5 µM; with SK-MEL-5 melanoma, 38.3 µM and > 17.5 µM; in the test with SN12C renal it was 75.6 µM and > 17.5 µM; in the test with OVCAR-3 ovarian, 66.9 µM and > 17.5 µM; in the test with A549 NSCLC it was above 100 µM; in the test with LOX IMVI melanoma, 18.7 µM and 5.1 µM. The TGI in the test on RXF 393 renal was 37 µM and > 17.5 µM; with SW-620 colon it was 62.4 µM and > 17.5 µM; with A498 renal it was 68.8 µM and > 17.5 µM. For the same compound, the GI50 with SW-620 colon was 11.9 µM and 3.89 µM.

`Nc1ccc(C(=O)N/C(=C\C=C\c2ccco2)c2nc3[nH]c(=S)[nH]c(=O)c3[nH]2)cc1`: the TGI in the test with OVCAR-8 ovarian, in the test on SR leukemia, in the test on SK-MEL-5 melanoma, in the test with SN12C renal, in the test on OVCAR-3 ovarian and with A549 NSCLC was above 100 µM each time. The TGI in the test on RXF 393 renal and with SW-620 colon was above 100 µM each time.

Regarding `Cc1cc2nc3c(=O)n(C)c(=O)nc-3n(-c3ccc(Cl)cc3)c2cc1C`, the TGI is 43.7 µM in the test with OVCAR-8 ovarian; 4.14 µM in the test with SK-MEL-5 melanoma; 18.6 µM in the test with SN12C renal; 8.81 µM in the test on OVCAR-3 ovarian; 16.4 µM in the test with A549 NSCLC; 20.5 µM in the test on SW-620 colon. The TGI in the test with A498 renal amounted to 89.8 µM.

`O=C(Nc1ccccc1)c1ccc(Cl)c([N+](=O)[O-])c1`: the TGI in the test with OVCAR-8 ovarian was 39.6 µM; in the test on SK-MEL-5 melanoma it was 20 µM; in the test on SN12C renal it was 79.4 µM; in the test with OVCAR-3 ovarian, 43.5 µM; in the test with A549 NSCLC it was above 100 µM; in the test on LOX IMVI melanoma, above 100 µM. Also, the TGI came to 75.5 µM in the test with RXF 393 renal, 34 µM with SW-620 colon and 63.9 µM in the test with A498 renal.

In the case of `O=C1C=C(c2c(O)ccc3ccccc23)c2ccccc2C1=O`, the TGI turned out to be 5.3 µM in the test on OVCAR-8 ovarian; 7.42 µM with SK-MEL-5 melanoma; 12.2 µM in the test with SN12C renal; 6.02 µM in the test with OVCAR-3 ovarian; 25.7 µM in the test with A549 NSCLC; 4.42 µM in the test on LOX IMVI melanoma. Moreover, the TGI in the test on RXF 393 renal was 5.06 µM; in the test on SW-620 colon it was 5.21 µM; in the test with A498 renal, 13.4 µM.

Consider `N#CC(C#N)=C(N)/C(C#N)=C\c1ccnc2ccccc12`, for which the TGI in the test with OVCAR-8 ovarian is 55.7 µM; in the test with SR leukemia it was 58 µM; with SK-MEL-5 melanoma it was 34 µM; in the test on SN12C renal, 60 µM; in the test with OVCAR-3 ovarian it was above 100 µM; in the test on A549 NSCLC it was above 100 µM. The results for the TGI with RXF 393 renal and in the test with SW-620 colon were 35.3 µM and 17.2 µM, respectively.

As to `O=C(Nc1ccc(Cl)cc1)Nc1ccc(Cl)c(Cl)c1`, the GI50 with OVCAR-8 ovarian is 5.02 µM; in the test on SK-MEL-5 melanoma, 1.72 µM; with SN12C renal, 3.42 µM; with OVCAR-3 ovarian, 3.31 µM; in the test on A549 NSCLC, 4.58 µM; in the test with LOX IMVI melanoma, 3.39 µM. The GI50 was 3.95 µM in the test on SW-620 colon and 3.05 µM in the test on A498 renal. In addition, the TGI with OVCAR-8 ovarian was above 100 µM; in the test on SK-MEL-5 melanoma, 3.42 µM; in the test with SN12C renal, above 100 µM; with OVCAR-3 ovarian it was above 100 µM; in the test with A549 NSCLC, above 100 µM; in the test with LOX IMVI melanoma, above 100 µM. Besides, the TGI in the test on SW-620 colon was above 100 µM; in the test on A498 renal, 7.94 µM.

As to `c1cnc2c(c1)-n1cccc1C1(CCSCC1)NN2`, the TGI in the test with OVCAR-8 ovarian, in the test on SR leukemia, in the test on SK-MEL-5 melanoma, in the test on SN12C renal, with OVCAR-3 ovarian and with A549 NSCLC was above 100 µM each time. Also, the TGI in the test with LOX IMVI melanoma and with SW-620 colon was above 100 µM each time.

In the case of `CCN(CC)CCn1c2c3ccccc3ccc2c2oc(=O)c3ccccc3c21`, the TGI with OVCAR-8 ovarian, in the test with SR leukemia, in the test on OVCAR-3 ovarian, in the test with A549 NSCLC, in the test with LOX IMVI melanoma and in the test with SW-620 colon was above 100 µM in each case.
